Assay results published in patent publication US6805870B1 (priority 1994, dated 2004).
Like-named read-outs stand apart in the source and are kept apart here.

Tested on: VSV
Type: in vivo, mouse

In the case of `c1ccc([C@H]2CN3CCSC3=N2)cc1` [levamisole], the “efficacy index (mean of at least 2 tests)” value (“efficacy index” below) (mouse, in vivo) is reported as 0, the “efficacy index” value (preparation dilution 1:4) is reported as “toxic” and the “efficacy index” value (preparation dilution 1:8) is reported as 0. For the same compound, the “efficacy index” value (preparation dilution 1:32) was 0, the “efficacy index” value (preparation dilution 1:64) was 0 and the “efficacy index” value (preparation dilution 1:128) was 0.
